Reference: patent US8618178B2, “Method and substances for treating T-cell mediated autoimmune diseases” (Eberhard-Karls-Universitaet Tuebingen Universitaetsklinikum, priority 2006, dated 2013)
Structures can show the parent of a compound that is named as a salt.

Columns and labels:
[1] = system: PLP-specific CD4+ T cells; assay: ELISPOT cytokine analysis of PLP-specific CD4+ T cells from draining lymph nodes of fed mice; format: in vivo, SJL mice; details: 6 days after immunization, ELISPOT IL-4 / IFN-γ
Method: (§1) Spleen and lymph node CD4^+ T cells were stimulated with PLP (proteolipid protein) peptide 139-151 (10 μg/ml) and stimulated for four days with irradiated SJL-APC in the presence or absence of L-BSO (0.5 mM, Sigma), expanded for three to four days and then restimulated for cytokine production (proteolipid protein is the commonest myelin protein in the central nervous system and plays an important part as an autoantigen in the onset of multiple sclerosis). Next, 10^7 sham (control) or L-BSO treated T cells were injected intraperitoneally into naive SJL mice and the EAE developing as a result was observed. […] For the cytokine analysis of PLP-specific T cells, the draining lymph nodes of the SJL mice were removed 6 days after the immunization and CD4^+ T cells antigen-specifically analyzed (ELISPOT). […] After washing with H2O, the number of spots was determined in the ELISPOT reader (Biosys).
In order further to study whether GSH deprivation can also influence the differentiation and pathogenicity of autoreactive T cells in vivo, mice were fed with DMF or L-BSO in the drinking water, and the control group only with drinking water. […] 6 days after immunization, the draining lymph nodes of the mice were analyzed. For this, the CD4^+ T cells were isolated and the cytokine production of PLP-specific T cells measured using ELISPOT after in vitro stimulation.

[2] = GSH levels in organs of immunized mice after feeding; format: in vivo; details: fed in the drinking water; data not shown
Source text: In order further to study whether GSH deprivation can also influence the differentiation and pathogenicity of autoreactive T cells in vivo, mice were fed with DMF or L-BSO in the drinking water, and the control group only with drinking water. Active EAE induction was effected on day 10 with PLP peptide in complete Freund's adjuvant (CFA) and pertussis toxin. The mice were examined daily regarding the course of the artificially triggered disease. Through the administration of L-BSO or DMF, the GSH levels in lymphoid organs and in the brain of immunized mice could be lowered (not shown). […] 6 days after immunization, the draining lymph nodes of the mice were analyzed. For this, the CD4^+ T cells were isolated and the cytokine production of PLP-specific T cells measured using ELISPOT after in vitro stimulation. […] The pharmaceutical substances to be tested can also be analyzed ex vivo for their potential to deplete GSH. For this, after treatment of experimental mice, small tissue pieces are removed from the respective organs and placed in about 1 ml of 1% SSA. The tissue piece in SSA is homogenized using an ultrasonic probe. The further GSH and protein determination is effected according to the procedure described for APC and DC. Comparison with the GSH content of control cells or control tissue indicates the GSH-lowering action of the pharmaceutical substance to be tested.

PLP-specific T cells = assay: In vitro stimulation of PLP-specific T cells under GSH deprivation; format: cell-based, mouse
Method: The CD4+ T cells of DO11.10 mice were sorted using MACS magnet beads (Miltenyi Biotech). By culturing of DC on day seven with either medium and DMSO or DMF for 2 hours, DC^GSHhigh or DC^GSHlow could be generated. After four-hour stimulation with LPS or CpG-DNA/IL-4, the DC^GSHhigh or DC^GSHlow were used for the stimulation of DO11.10 T cells with 10 μg/ml ovalbumin peptide 323-339 for two days. The T cells were expanded with 50 U/ml IL-2 (Chiron Therapeutics). The cells were washed on day 10 and restimulated with fresh APC. The analysis was performed with the supernatants after 24 hrs. […]
as §1, with “sclerosis).” for “sclerosis). Next, 10^7 sham (control) or L-BSO treated T cells were injected intraperitoneally into naive SJL mice and the EAE developing as a result was observed.”

human DC = assay: GSH determination in human DC in vitro; format: cell-based
Method: Cellular GSH and GSSG were determined in micro-titer plate assays using colorimetric methods. The cellular GHS content is determined as a percentage of the GSH levels in freshly prepared controls or as pmol 10^−6 cells. GSSG was not detectable.
DC from human bone marrow (BMDC) (CD14^+) were isolated using MACS (Miltenyi Biotech) and incubated for seven days with IL-4 (500 U/ml, R & D Systems) and GM-CSF (Granulocyte-Monocyte Colony Stimulating Factor) (1000 U/ml (Immunonex)). GSX determination as under 1.3.

IL-10 = IL-10 production by DC, ELISA of culture supernatants; format: cell-based, mouse
Method: IL-4, IL-10, IL-12 and interferon-γ were determined using the ELISA (enzyme linked immunosorbent assay) set or with the use of individual components from BD BioSciences. IL-23 in the supernatant was determined using the ELISA set (eBioscience). For intracytoplasmic cytokine analyses, the T cells were restimulated with PMA/ionomycin or with APC and peptide in the presence of brefeldin A, then fixed and permeabilized and stained. For the surface staining, anti-CD4 or KJ1-26 antibodies were used; the cytokine antibodies (PE labeled) were all obtained from BD Pharmingen.
As antigen presenting cells (APC), T cell depleted spleen cells from syngenic mice were used. Dendritic cells (DC) which were obtained from bone marrow (BMDC) and cultured with GM-CSF were used for the relevant experiments on day 7 of culturing. For the experiment, in each case an equal number of APC were cultured either with the medium alone, with L-BSO (C8H18N2O3S, 0.5 mM), dimethyl sulfoxide DMSO(C2H6OS), dimethyl fumarate DMF (C6H8O4, dissolved in DMSO, 70 μM), or calcium monomethyl fumarate (MMF; CaC10H10O8, 200 μM). […] At the respective stated times (see below) the cells were either analyzed directly for their GSH content, used for T cell stimulation or stimulated for […] with Escherichia coli lipopolysaccharides 055.B5 (Sigma-Aldrich) or CpG-DNA 1668 (MWG Biotech) and IL-4 (Stratmann). […]

Compound: CCCCS(=N)(=O)CCC(N)C(=O)O [L-BSO, L-buthionine sulfoximine]
- cytokine pattern of PLP-specific CD4+ T cells [1]: TH2-like pattern
- GSH levels in lymphoid organs and in the brain of immunized mice [2]: lowered

Compound: COC(=O)/C=C/C(=O)OC [DMF, dimethyl fumarate]
- cytokine pattern of PLP-specific CD4+ T cells [1]: TH2-like pattern
- differentiation of PLP-specific T cells to Th1 and Th-17 (PLP-specific T cells): inhibits the differentiation of Th1 and Th-17
- differentiation of PLP-specific T cells towards Th2 (PLP-specific T cells): promotes the differentiation towards Th2
- GSH in human DC (human DC): depletes GSH
- IL-10 production in DC (IL-10): rise in IL-10 production
- GSH levels in lymphoid organs and in the brain of immunized mice [2]: lowered
